The values that follow come from patent US10081624B2, “Heterocyclic compound” (Takeda Pharmaceutical Company Limited, priority 2014, dated 2018).

In test [1] the target is T1, HDAC1 enzyme (Homo sapiens, UniProt Q13547).
T1 construct: prepared by transducing full length HDAC1 and HDAC6 genes into Sf-9 insect cells; GST; purchased SignalChem; host or cells: Sf-9 insect cells
In words: HDAC1 enzyme inhibitory assay (HDAC-Glo I/II Assay kit). The test is classed as biochemical. Particulars: 1 μM test compound; for inhibition at 1 µM: read-out: HDAC1 inhibitory rate (%) (1 μM). An outline of the steps: (§1)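 Full-length GST-purified HDAC1 or HDAC6 (Sf-9 expressed) preincubated 60 min at room temperature with compound in Tris-HCl pH 7.5 buffer with glutathione and Tween-20. HDAC-Glo substrate-developer added, 20 min at room temperature, then luminescence read; inhibition relative to no-enzyme wells as 100%.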

The target in test [2] is T2, HDAC6 enzyme (Homo sapiens, UniProt Q9UBN7).
T2 construct: prepared by transducing full length HDAC1 and HDAC6 genes into Sf-9 insect cells; GST; purchased SignalChem; host or cells: Sf-9 insect cells
T2 sequence (Q9UBN7 1-1215): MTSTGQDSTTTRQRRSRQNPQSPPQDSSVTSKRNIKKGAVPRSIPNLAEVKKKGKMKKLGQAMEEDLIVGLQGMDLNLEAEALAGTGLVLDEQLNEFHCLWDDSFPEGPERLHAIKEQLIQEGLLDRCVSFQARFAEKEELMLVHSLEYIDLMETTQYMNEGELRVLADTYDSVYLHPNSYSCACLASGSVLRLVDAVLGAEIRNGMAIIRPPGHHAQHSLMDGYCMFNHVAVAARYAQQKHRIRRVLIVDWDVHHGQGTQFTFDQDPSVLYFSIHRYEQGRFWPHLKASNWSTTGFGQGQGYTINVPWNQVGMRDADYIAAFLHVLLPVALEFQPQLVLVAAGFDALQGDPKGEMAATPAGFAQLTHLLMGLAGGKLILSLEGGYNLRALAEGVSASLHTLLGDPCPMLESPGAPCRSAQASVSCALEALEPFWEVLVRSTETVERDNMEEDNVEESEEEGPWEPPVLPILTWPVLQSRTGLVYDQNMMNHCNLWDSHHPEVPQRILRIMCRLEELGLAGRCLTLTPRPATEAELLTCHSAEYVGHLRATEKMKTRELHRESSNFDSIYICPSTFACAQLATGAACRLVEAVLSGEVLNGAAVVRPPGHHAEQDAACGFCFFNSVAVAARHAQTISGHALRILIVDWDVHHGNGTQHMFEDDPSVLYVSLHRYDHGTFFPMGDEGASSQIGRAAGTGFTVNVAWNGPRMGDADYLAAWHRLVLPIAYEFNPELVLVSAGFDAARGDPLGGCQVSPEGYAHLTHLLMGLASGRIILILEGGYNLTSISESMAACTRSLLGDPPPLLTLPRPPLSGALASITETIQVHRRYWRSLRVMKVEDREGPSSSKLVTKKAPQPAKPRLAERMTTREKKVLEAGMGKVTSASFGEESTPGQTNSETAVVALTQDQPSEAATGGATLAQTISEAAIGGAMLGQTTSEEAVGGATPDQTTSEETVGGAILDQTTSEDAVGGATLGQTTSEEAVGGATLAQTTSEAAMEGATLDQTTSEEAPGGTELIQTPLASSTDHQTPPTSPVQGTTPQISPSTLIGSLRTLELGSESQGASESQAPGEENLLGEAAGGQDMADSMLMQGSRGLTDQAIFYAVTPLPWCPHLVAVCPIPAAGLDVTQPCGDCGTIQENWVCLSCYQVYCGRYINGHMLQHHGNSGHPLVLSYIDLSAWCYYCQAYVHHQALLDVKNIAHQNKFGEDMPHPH
Put plainly: HDAC6 enzyme inhibitory assay (HDAC-Glo I/II Assay kit). The conditions noted are these: 1 μM test compound; for inhibition at 1 µM: read-out: HDAC6 inhibitory rate (%) (1 μM). Format: biochemical. The gist of the method:
as §1

T1 sequence (Q13547 whole entry): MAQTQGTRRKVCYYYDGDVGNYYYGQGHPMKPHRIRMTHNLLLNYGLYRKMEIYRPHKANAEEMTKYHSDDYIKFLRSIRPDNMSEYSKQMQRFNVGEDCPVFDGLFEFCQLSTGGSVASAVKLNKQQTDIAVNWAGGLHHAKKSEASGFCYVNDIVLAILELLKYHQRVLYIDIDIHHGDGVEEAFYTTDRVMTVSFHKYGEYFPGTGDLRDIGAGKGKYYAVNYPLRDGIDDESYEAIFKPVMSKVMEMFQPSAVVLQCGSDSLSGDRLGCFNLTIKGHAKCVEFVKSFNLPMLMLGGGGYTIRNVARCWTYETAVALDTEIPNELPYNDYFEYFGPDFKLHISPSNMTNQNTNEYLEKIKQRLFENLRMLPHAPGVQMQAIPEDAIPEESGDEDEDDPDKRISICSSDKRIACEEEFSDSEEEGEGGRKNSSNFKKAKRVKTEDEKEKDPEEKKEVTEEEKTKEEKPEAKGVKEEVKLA

For the molecule `O=C(NC[C@H]1COCCN1C(=O)N1CCCCC1CO)c1ccc(-c2noc(C(F)(F)F)n2)cc1` (stereo partly drawn) [Example 304, N-(((3S)-4-((2-(hydroxymethyl)piperidin-1-yl)carbonyl)morpholin-3-yl)methyl)-4-(5-(trifluoromethyl)-1,2,4-oxadiazol-3-yl)benzamide], the “HDAC1 inhibitory rate (%) (1 μM)” value in test [1] (1 µM) is 9%. In addition, in test [2], the “HDAC6 inhibitory rate (%) (1 μM)” value came out at 99%.

As for `O=C(NC[C@H]1COCCN1C(=O)N1CCCC1CCO)c1ccc(-c2noc(C(F)(F)F)n2)cc1` (stereo partly drawn) [Example 305, N-(((3S)-4-((2-(2-hydroxyethyl)pyrrolidin-1-yl)carbonyl)morpholin-3-yl)methyl)-4-(5-(trifluoromethyl)-1,2,4-oxadiazol-3-yl)benzamide], the inhibition at 1 µM was 5% in test [1] and 99% in test [2].

On to `O=C(NC[C@H]1COCCN1C(=O)N1CCCC1CCO)c1ccc(-c2noc(C(F)(F)F)n2)cc1` (stereo partly drawn) [Example 306, N-(((3S)-4-((2-(2-hydroxyethyl)pyrrolidin-1-yl)carbonyl)morpholin-3-yl)methyl)-4-(5-(trifluoromethyl)-1,2,4-oxadiazol-3-yl)benzamide], for which, in test [1], the “HDAC1 inhibitory rate (%) (1 μM)” value was determined as 5%. For the same molecule, the “HDAC6 inhibitory rate (%) (1 μM)” value in test [2] (1 µM) was determined as 88%.

With `O=C(NC[C@H]1COCCN1C(=O)N1CCCC(F)(F)C1)c1ccc(-c2noc(C(F)(F)F)n2)cc1` [Example 307, N-(((3S)-4-((3,3-difluoropiperidin-1-yl)carbonyl)morpholin-3-yl)methyl)-4-(5-(trifluoromethyl)-1,2,4-oxadiazol-3-yl)benzamide], the inhibition at 1 µM stood at 9% in test [1] and 98% in test [2].

Take `Cc1oc2ccccc2c1C(=O)N1CCOC[C@@H]1CNC(=O)c1ccc(-c2noc(C(F)(F)F)n2)cc1` [Example 308, N-(((3S)-4-((2-methyl-1-benzofuran-3-yl)carbonyl)morpholin-3-yl)methyl)-4-(5-(trifluoromethyl)-1,2,4-oxadiazol-3-yl)benzamide]: the inhibition at 1 µM in test [1] was 46%; in test [2], 100%.

Turning to `O=C(NC[C@H]1COCCN1C(=O)N1CC2C(C1)C2(F)F)c1ccc(-c2noc(C(F)(F)F)n2)cc1` (stereo partly drawn) [Example 309, N-(((3S)-4-((6,6-difluoro-3-azabicyclo[3.1.0]hex-3-yl)carbonyl)morpholin-3-yl)methyl)-4-(5-(trifluoromethyl)-1,2,4-oxadiazol-3-yl)benzamide], the inhibition at 1 µM is 4% in test [1] and 96% in test [2].

Take `O=C(NC[C@H]1COCCN1C(=O)N1CCOCC1CO)c1ccc(-c2noc(C(F)(F)F)n2)cc1` (stereo partly drawn) [Example 310, N-(((3S)-4-((3-(hydroxymethyl)morpholin-4-yl)carbonyl)morpholin-3-yl)methyl)-4-(5-(trifluoromethyl)-1,2,4-oxadiazol-3-yl)benzamide]: in test [1] (1 µM), the “HDAC1 inhibitory rate (%) (1 μM)” value was 3%. For the same molecule, the inhibition at 1 µM in test [2] worked out at 98%.

Consider `O=C(NC[C@H]1COCCN1C(=O)N1CCOCC1CO)c1ccc(-c2noc(C(F)(F)F)n2)cc1` (stereo partly drawn) [Example 311, N-(((3S)-4-((3-(hydroxymethyl)morpholin-4-yl)carbonyl)morpholin-3-yl)methyl)-4-(5-(trifluoromethyl)-1,2,4-oxadiazol-3-yl)benzamide], for which, in test [1] (1 µM), the “HDAC1 inhibitory rate (%) (1 μM)” value came to 7%. In test [2] (1 µM), the “HDAC6 inhibitory rate (%) (1 μM)” value was 96%.
